Data as given in US8367659B2, “Oxazinyl isoflavonoid compounds, medicaments and use” (Marshall Edwards, Inc., priority 2007, dated 2013).

Columns and labels:
PMA-induced ear oedema = test: PMA-induced ear swelling in mice; format: in vivo, BALB/c mice; conditions: 25 mg/kg i/p; 5 h after PMA
Protocol: Groups of 5-6 female BALB/c mice (ARC, WA, Australia), weighing 15-21 g were injected intraperitoneally (i/p) with test compound at 25 mg/kg delivered in polyethylene glycol (PEG) 400: phosphate buffered saline (PBS) 1:1 or ethanol: propanediol: PBS 4:9:7 either 30 min prior to or immediately before the inflammogen was applied to the ears. Mice were anaesthetised using isoflurane and baseline thickness of both ears was measured using a spring micrometer. Each mouse received a total of 20 μL of either AA in ethanol (50 mg/ml or 200 mg/ml) or PMA in either ethanol or acetone (0.2 mg/ml) applied to the inner and outer surfaces of each pinna (i.e. 0.5 mg or 2 mg AA or 2 μg PMA per ear). Mice were anaesthetised again to re-measure the ears at 1 h post-AA application and 5 h after PMA. The difference in ear swelling pre- and post-application of inflammogen for each ear was calculated, and the average for the two ears of each mouse taken. The difference in mean swelling of each test group compared to the group given vehicle alone was calculated using a general ANOVA using Dunnett's Multiple Comparison test when multiple compounds were tested in the one experiment or a two-tailed […] t-test when only one compound was tested (Prism 4, Graphpad Software). The data has been presented graphically as the mean percentage inhibition of oedema, calculated as: […]. Results

A10 smooth muscle cells = test: Proliferation of A10 smooth muscle cells from the media of rat aorta; format: cell-based; conditions: A10, 72 h, three days, read-out: IC50, inhibition of proliferation in A10 cells
Protocol: (§1) The effect of test compounds on human umbilical vein smooth muscle cells (HUVSMC), was examined. Cells, tissue explants from a neonate (HRI—passage 2), were seeded into 96 well plates at 1×10^3 cells per well, and allowed to attach for 24 hours. They were then washed twice and incubated in medium without foetal calf serum (FCS) for 24-48 hours to serum-starve them. Test compounds were prepared in medium without FCS and added to the plates and incubated for one hour. Medium with FCS was added to give a final concentration of 10% and the plates incubated for 4-5 days until the controls were just confluent.
(§2) The effect of test compounds on rat aortic smooth muscle cell line (A7r5) and another cell line from the media of rat aorta (A10) was examined. The methodology was the same as for HUVSMC, except that the cells were treated with compound for three days.

[1] = system: human umbilical vein smooth muscle cells (HUVSMC); test: Proliferation of human umbilical vein smooth muscle cells (MTT); format: cell-based
Method in brief: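 HUVSMC (1.6×10^3 cells/well) serum-starved 20 h, pretreated 1 h with analogue at 10 μM final, then stimulated with 10% FCS. After ~5 days, when FCS controls were just confluent, MTT absorbance was read; value = test/control*100−100.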

E-selectin = test: TNFα-induced E-selectin expression in human arterial endothelial cells (ELISA); format: cell-based
Protocol: Inhibition of TNFα-stimulated endothelial cell activation by compounds was assessed by measuring surface expression of cell adhesion molecules with an ELISA method. Human arterial endothelial cells (HAEC) in growth medium (Cell Applications Inc.) were seeded into 96-well plates at a density of 10,000 cells per well. Plates were incubated overnight at 37° C. in a humidified incubator to allow for cells to become confluent. On the morning of the experiment, TNFα (10 μl, 2 ng/ml) was added to each well, which contained 100 μl of medium. Compounds were diluted in DMSO-containing medium (2.5% DMSO) to give a compound concentration of 100 and 300 μM. Compounds were added to wells so that final concentrations were 10 and 30 μM. DMSO-containing medium alone was added to zero concentration control wells. All samples were measured in quadruplicate (4 wells per treatment).
After incubation with compound, medium was removed and cells were probed with either non-specific IgG or specific mouse antibodies against E-selectin, ICAM or VCAM (BD Biosciences—0.1 μg in 100 μL buffered saline with 10% heat-inactivated human serum). Adhesion molecule expression was detected by addition of sheep anti-mouse antibody/horseradish peroxidase conjugate. […] Optical density was measured at 405 nm with an ELISA reader (Titertek Multiscan, Flow Laboratories). […]

[2] = system: A7r5 rat aortic smooth muscle cells; test: Proliferation of A7r5 rat aortic smooth muscle cells; format: cell-based; conditions: A7R5, 72 h, three days, read-out: IC50, inhibition of proliferation in A7r5 cells
Protocol: as §1, §2

SMILES	% Change compared with vehicle (PMA-induced ear oedema) [%]	Change in ear thickness (mean ± SD, × 0.01 mm) (PMA-induced ear oedema) [× 0.01 mm]	IC50 (A10 smooth muscle cells) [µM]	IC50 ([1]; Homo sapiens, average over three different assays, 4-5 days, read-out: average IC50, inhibition of proliferation of HUVSMC) [µM]	inhibition of E-selectin expression (E-selectin; TNFα-stimulated HAEC, 4 hrs, FIG. 18) [%]	IC50 [2] [µM]	effect on TNFα-induced E-selectin expression (E-selectin; HAEC, 10 μM found most appropriate for comparing)	effect on proliferation of HUVSMCs induced by FCS ([1]; 10 μM, 10% FCS, 5 days, FIG. 8)
Oc1ccc(C2=Cc3cc4c(cc3OC2)OCN(Cc2ccccc2)C4)cc1 [Compound 1, 4-(3-Benzyl-2,3,4,8-tetrahydrochromeno[6,7-e][1,3]oxazin-7-yl)phenol]	−9	28.9 ± 3.1	11	15	> 50	23		
Oc1cccc(C2=Cc3ccc(O)cc3OC2)c1 [Compound 37-DHE, 3′,7-dihydroxy-isoflav-3-ene, reference compound]			31			45	less pronounced	
CC(c1ccccc1)N1COc2cc3c(cc2C1)C=C(c1ccc(O)cc1)CO3 (stereo not drawn) [Compound 2, 4-(3-(1-Phenylethyl)-2,3,4,8-tetrahydrochromeno[6,7-e][1,3]oxazin-7-yl)phenol]	−3	30.9 ± 2.2						significantly inhibited the proliferation
